Target: T1, Glucocorticoid receptor (Homo sapiens, UniProt P04150)
T1 sequence (P04150 whole entry): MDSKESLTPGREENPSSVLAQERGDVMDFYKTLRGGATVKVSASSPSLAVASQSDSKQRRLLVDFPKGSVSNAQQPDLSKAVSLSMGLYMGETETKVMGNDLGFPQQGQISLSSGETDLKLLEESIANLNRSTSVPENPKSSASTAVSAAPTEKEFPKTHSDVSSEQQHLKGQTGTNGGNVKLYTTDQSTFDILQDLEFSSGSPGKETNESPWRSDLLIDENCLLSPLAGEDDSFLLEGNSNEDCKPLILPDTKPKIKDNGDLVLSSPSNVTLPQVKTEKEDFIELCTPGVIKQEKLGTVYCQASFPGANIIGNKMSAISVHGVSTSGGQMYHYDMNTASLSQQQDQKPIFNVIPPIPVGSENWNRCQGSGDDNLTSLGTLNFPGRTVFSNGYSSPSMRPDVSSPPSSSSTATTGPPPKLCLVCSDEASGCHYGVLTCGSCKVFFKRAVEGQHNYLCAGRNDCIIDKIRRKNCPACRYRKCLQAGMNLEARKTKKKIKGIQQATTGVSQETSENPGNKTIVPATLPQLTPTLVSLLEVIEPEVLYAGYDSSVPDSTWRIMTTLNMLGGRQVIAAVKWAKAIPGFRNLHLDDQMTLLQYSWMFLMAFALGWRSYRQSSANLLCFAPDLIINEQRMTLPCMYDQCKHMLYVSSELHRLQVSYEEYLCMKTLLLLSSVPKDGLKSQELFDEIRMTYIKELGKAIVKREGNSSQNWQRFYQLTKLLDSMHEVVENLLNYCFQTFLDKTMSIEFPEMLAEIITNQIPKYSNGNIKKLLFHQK
Test: Inhibition of glucocorticoid receptor

SMILES | IC50 [µM]
C[C@@H]1C[C@H]2[C@@H]3CCC4=CC(=O)C=C[C@]4(C)[C@@]3(F)[C@@H](O)C[C@]2(C)[C@@]1(O)C(N)=O [OXDEX] | 0.6
C[C@@H]1C[C@H]2[C@@H]3CCC4=CC(=O)C=C[C@]4(C)[C@@]3(F)[C@@H](O)C[C@]2(C)[C@@]1(O)C(=O)CSCCC(N)=O | 0.036
